Reference: patent US6908935B2, “Calcium receptor modulating agents” (Amgen Inc., priority 2002, dated 2005)

What follows are molecules tested against T1, human parathyroid cell Ca^2+ receptor (hPCaR) (Homo sapiens, UniProt P41180) (assay: [Ca2+]i measurement with fluo-3 in HEK 293 4.0-7 cells stably transfected with hPCaR). Details: fluo-3 fluorescence (485/530 nm), effect on [Ca^2+]i.
T1 construct: expressed in transfected cells
T1 sequence (P41180 20-1078): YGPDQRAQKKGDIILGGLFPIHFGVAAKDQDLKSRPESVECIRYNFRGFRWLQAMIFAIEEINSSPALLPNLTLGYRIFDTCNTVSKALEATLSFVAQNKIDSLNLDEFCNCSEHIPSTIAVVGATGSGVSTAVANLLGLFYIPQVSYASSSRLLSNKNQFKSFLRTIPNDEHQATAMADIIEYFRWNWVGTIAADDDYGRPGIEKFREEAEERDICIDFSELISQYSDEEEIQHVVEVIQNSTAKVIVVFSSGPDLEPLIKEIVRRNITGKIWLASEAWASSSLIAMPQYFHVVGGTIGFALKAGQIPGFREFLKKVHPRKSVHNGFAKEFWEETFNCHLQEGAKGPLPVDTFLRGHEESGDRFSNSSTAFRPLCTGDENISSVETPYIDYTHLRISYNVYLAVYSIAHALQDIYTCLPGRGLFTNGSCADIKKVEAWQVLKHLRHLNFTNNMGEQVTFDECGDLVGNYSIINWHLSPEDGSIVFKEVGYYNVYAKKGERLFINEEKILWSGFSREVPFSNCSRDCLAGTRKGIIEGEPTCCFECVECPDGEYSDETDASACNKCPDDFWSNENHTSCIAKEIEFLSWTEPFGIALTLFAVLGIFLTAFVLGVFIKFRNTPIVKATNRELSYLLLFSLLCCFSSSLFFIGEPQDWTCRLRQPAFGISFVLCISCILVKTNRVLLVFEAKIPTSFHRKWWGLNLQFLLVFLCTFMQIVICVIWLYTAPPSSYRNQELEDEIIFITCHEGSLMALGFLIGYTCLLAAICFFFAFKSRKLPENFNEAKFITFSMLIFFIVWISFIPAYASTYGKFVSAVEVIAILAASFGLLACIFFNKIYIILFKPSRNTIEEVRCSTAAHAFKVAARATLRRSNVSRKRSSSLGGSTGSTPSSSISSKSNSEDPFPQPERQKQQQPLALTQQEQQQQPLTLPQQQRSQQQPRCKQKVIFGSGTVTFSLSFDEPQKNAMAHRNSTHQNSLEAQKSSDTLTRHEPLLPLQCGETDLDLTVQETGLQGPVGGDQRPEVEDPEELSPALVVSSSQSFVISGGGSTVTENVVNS
Format: cell-based
Description: The activities of the compounds of the present invention on calcium receptors were measured. In one embodiment, the measurement was performed in accordance with the method described in Example 4 of Nemeth et al., PCT/US95/13704 (International Publication No. WO96/12697) herein incorporated by reference.
A 4.0-kb NotI-HindIII fragment of the human parathyroid cell Ca^2+ receptor (hPCaR) cDNA was subcloned into the mammalian expression vector pCEP4 (Invitrogen) containing the hygromycin-resistant gene as a selectable marker. This plasmid was transfected into HEK 293 cells by calcium phosphate precipitation. Transfected cells were grown in Dulbecco's modified Eagle's medium containing 10% fetal bovine serum and hygromycin (200 μg/mL). Hygromycin-resistant colonies were subcloned and assayed for hPCaR mRNA by solution hybridization using a ^32P-labeled RNA probe complementary to the (4.0 kb) hPCaR sequence (Garrett, et al., J. Biol. Chem. 270, 12919-12925 (1995)). Clone 7 was used to assess the effects of compounds on [Ca^2+]i. This stably transfected cell line is termed HEK 293 4.0-7. For measurements of [Ca^2+]i, the cells were recovered from tissue culture flasks by brief treatment with 0.02% EDTA and then washed and resuspended in PCB containing 1 mM CaCl2 and 0.1% Bovine Serum Albumin (“BSA”). The cells were loaded with fluo-3 by incubation for 30 min at 37° C., with parathyroid cell buffer (126 mM NaCl, 4 mM KCl, 1 mM MgSO4, 0.7 mM K2HPO/KH2PO4, 20 mM HEPES.NaOH (pH 7.45)) containing 0.5% BSA in lmM CaCl2 and 2 μM fluo-3 acetoxymethyl ester. The cells were subsequently washed, each test compound was added to the cells and the fluorescence was recorded by using excitation and emission wavelengths of 485 and 530 nm, respectively.

EC50, ≤ 10 µM:
COc1cccc([C@@H](C)NCc2ccc(OC)c(-c3ccc(C(N)=O)cc3)c2)c1 [2′-(methyloxy)-5′-((((1R)-1-(3-(methyloxy)phenyl)ethyl)amino)methyl)-1,1′-biphenyl-4-carboxamide], COc1ccc(CN[C@H](C)c2ccccc2)cc1-c1ccc(=O)n(C)c1 [1-methyl-5-(2-(methyloxy)-5-((((1R)-1-phenylethyl)amino)methyl)phenyl)-2(1H)-pyridinone], Cc1ccc(-c2cccc(CN[C@H](C)c3ccccc3)c2)cn1 [(1R)-N-((3-(6-methyl-3-pyridinyl)phenyl)methyl)-1-phenylethanamine], COc1cccc([C@@H](C)NCc2ccc(OC)c(-c3ccsc3)c2)c1 [(1R)-1-(3-(methyloxy)phenyl)-N-((4-(methyloxy)-3-(3-thienyl)phenyl)methyl)ethanamine], COc1cccc([C@@H](C)NCc2ccc(OC)c(-c3ccc4c(c3)OC(F)(F)O4)c2)c1 [(1R)-N-((3-(2,2-difluoro-1,3-benzodioxol-5-yl)-4-(methyloxy)phenyl)methyl)-1-(3-(methyloxy)phenyl)ethanamine], COc1ccc(CN[C@H](C)c2ccc(C)cc2)cc1-c1cnc(N)nc1 [5-(2-(methyloxy)-5-((((1R)-1-(4-methylphenyl)ethyl)amino)methyl)phenyl)-2-pyrimidinamine], COc1ccc(-c2cccc(CN[C@H](C)c3cccc4ccccc34)c2)cc1 [(1R)-N-((4′-(methyloxy)-1,1′-biphenyl-3-yl)methyl)-1-(1-naphthalenyl)ethanamine], COc1ccc(CNC(C)c2cccc(F)c2)cc1-c1ccc(C(F)(F)F)cc1 (stereo not drawn) [1-(3-fluorophenyl)-N-((6-(methyloxy)-4′-(trifluoromethyl)-1,1′-biphenyl-3-yl)methyl)ethanamine], COc1ccc(CN[C@H](C)c2ccccc2)cc1-c1ccc2c(c1)CCO2 [(1R)-N-((3-(2,3-dihydro-1-benzofuran-5-yl)-4-(methyloxy)phenyl)methyl)-1-phenylethanamine], COc1ccc(CN[C@H](C)c2ccccc2)cc1-c1csc(C)n1 [(1R)-N-((4-(methyloxy)-3-(2-methyl-1,3-thiazol-4-yl)phenyl)methyl)-1-phenylethanamine], COc1cccc([C@@H](C)NCc2ccc(OC)c(-c3ccc(OC)nn3)c2)c1 [(1R)-N-((4-(methyloxy)-3-(6-(methyloxy)-3-pyridazinyl)phenyl)methyl)-1-(3-(methyloxy)phenyl)ethanamine], COc1ccc([C@@H](C)NCc2cccc(-c3ccc(NC(=O)CCC(=O)O)nc3)c2)cc1 [4-((5-(3-((((1R)-1-(4-(methyloxy)phenyl)ethyl)amino)methyl)phenyl)-2-pyridinyl)amino)-4-oxobutanoic acid], COc1cccc([C@@H](C)NCc2ccc(OC)c(-c3ncccn3)c2)c1 [(1R)-1-(3-(methyloxy)phenyl)-N-((4-(methyloxy)-3-(2-pyrimidinyl)phenyl)methyl)ethanamine], COc1ccc(CN[C@H](C)c2ccc3ccccc3c2)cc1-c1cnccn1 [(1R)-N-((4-(methyloxy)-3-(2-pyrazinyl)phenyl)methyl)-1-(2-naphthalenyl)ethanamine], COc1ccc(CN[C@H](C)c2cccc3ccccc23)cc1-c1ccc2c(c1)nc(C(F)(F)F)n2C [(1R)-N-((4-(methyloxy)-3-(1-methyl-2-(trifluoromethyl)-1H-benzimidazol-5-yl)phenyl)methyl)-1-(1-naphthalenyl)ethanamine], Cc1ccc([C@@H](C)NCc2cccc(-c3ccc(C)c(C)c3)c2)cc1 [(1R)-N-((3′,4′-dimethyl-1,1′-biphenyl-3-yl)methyl)-1-(4-methylphenyl)ethanamine], C[C@@H](NCc1ccc(Cl)c(-c2ccc(OCC(F)(F)F)nc2)c1)c1cccc2ccccc12 [(1R)-N-((4-chloro-3-(6-((2,2,2-trifluoroethyl)oxy)-3-pyridinyl)phenyl)methyl)-1-(1-naphthalenyl)ethanamine], Cc1ccc([C@@H](C)NCc2cccc(-c3ccc(F)cc3)c2)cc1 [(1R)-N-((4′-fluoro-1,1′-biphenyl-3-yl)methyl)-1-(4-methylphenyl)ethanamine], COc1ccc(CN[C@H](C)c2cccc3ccccc23)cc1-c1nc2ccccc2n1C [(1R)-N-((3-(1-methyl-1H-benzimidazol-2-yl)-4-(methyloxy)phenyl)methyl)-1-(1-naphthalenyl)ethanamine], Cc1ccc([C@@H](C)NCc2cccc(-c3ccccc3F)c2)cc1 [(1R)-N-((2′-fluoro-1,1′-biphenyl-3-yl)methyl)-1-(4-methylphenyl)ethanamine], COc1ccc(CN[C@H](C)c2cccc3ccccc23)cc1-c1cccc(C(N)=O)c1 [2′-(methyloxy)-5′-((((1R)-1-(1-naphthalenyl)ethyl)amino)methyl)-1,1′-biphenyl-3-carboxamide], COc1ccc(CN[C@H](C)c2ccccc2)cc1-c1ccc2ccccc2c1 [(1R)-N-((4-(methyloxy)-3-(2-naphthalenyl)phenyl)methyl)-1-phenylethanamine], C[C@@H](NCc1ccc(Cl)c(-c2ccc(C(F)(F)F)cc2)c1)c1ccccc1 [(1R)-N-((6-chloro-4′-(trifluoromethyl)-1,1′-biphenyl-3-yl)methyl)-1-phenylethanamine], C[C@@H](NCc1ccc(Cl)c(-c2ccc(OC(F)(F)F)cc2)c1)c1cccc2ccccc12 [(1R)-N-((6-chloro-4′-((trifluoromethyl)oxy)-1,1′-biphenyl-3-yl)methyl)-1-(1-naphthalenyl)ethanamine], COc1ccc(-c2cc(CN[C@H](C)c3ccc4ccccc4c3)ccc2OC)nn1 [(1R)-N-((4-(methyloxy)-3-(6-(methyloxy)-3-pyridazinyl)phenyl)methyl)-1-(2-naphthalenyl)ethanamine], COc1cccc([C@@H](C)NCc2ccc(OC)c(-c3cccc(C(=O)O)c3)c2)c1 [2′-(methyloxy)-5′-((((1R)-1-(3-(methyloxy)phenyl)ethyl)amino)methyl)-1,1′-biphenyl-3-carboxylic acid], C[C@@H](NCc1ccc(F)c(-c2ccc(C(F)(F)F)cc2)c1)c1ccccc1 [(1R)-N-((6-fluoro-4′-(trifluoromethyl)-1,1′-biphenyl-3-yl)methyl)-1-phenylethanamine], COc1ccc(CN[C@H](C)c2cccc3ccccc23)cc1-c1cccc(C(F)(F)F)c1 [(1R)-N-((6-(methyloxy)-3′-(trifluoromethyl)-1,1′-biphenyl-3-yl)methyl)-1-(1-naphthalenyl)ethanamine], COc1ccc(CN[C@H](C)c2cccc3ccccc23)cc1-c1ccc(C(N)=O)cc1 [2′-(methyloxy)-5′-((((1R)-1-(1-naphthalenyl)ethyl)amino)methyl)-1,1′-biphenyl-4-carboxamide], COc1ccc(CN[C@H](C)c2cccc3ccccc23)cc1-c1ccc2ocnc2c1 [(1R)-N-((3-(1,3-benzoxazol-5-yl)-4-(methyloxy)phenyl)methyl)-1-(1-naphthalenyl)ethanamine]
